Where two headings read alike, the source gives them in different places.
Experiments:
[1] = system: spontaneously beating right atrium; assay: Isolated rat atria: rate of the spontaneously beating right atrium; conditions: Rattus norvegicus, Krebs solution at 32°C; for Emax: maximal effect relative to isoprenaline maximum (isoprenaline = 1), read-out: Rate Intrinsic Activity; for EC50: molar concentration producing 50% of the compound's own maximum response
Experimental: (§1) Sprague-Dawley male rats (300-400g) are killed and the right and left atria dissected out independently and mounted on a combined tissue holder/electrode. […] The rate of the spontaneously beating right atrium (via an isometric transducer and a ratemeter) and the tension of the electrically paced left atrium (via an isometric transducer) are recorded on a M19 chart recorder.
(§2) After an initial stabilization period, the tissues are exposed to a maximal concentration of isoprenaline (10-^7M). The tissues are then washed several times until rate and tension return to baseline level. A dose-response curve to the test compound is then carried out.
(§3) Responses to each concentration of test compound are expressed as a percentage of the maximal responses to isoprenaline. Results are given in the form of (a) intrinsic activity (maximal effect of test compound with respect to isoprenaline maximum, i.e. isoprenaline intrinsic activity = 1) and (b) EC50 (the molar concentration at which the test compound produces 50% of its own maximum response).

[2] = system: conscious cats; assay: Inotropic activity in conscious cats; format: in vivo; conditions: for Peak dp/dt: maximal percentage change in dp/dt of left ventricular pressure over initial baseline level; for Peak HR: maximal percentage change in heart rate over initial baseline level; for dp/dt: HR: ratio of peak dp/dt change to peak HR change
Experimental: Male 3-4.5 kg cats, bred in-house are implanted with a polythene cannula in the left ventricle which is exte- riorised at the back of the neck by means of a small teflon valve. Recordings are made via a pressure transducer attached by means of a length of polyethylene tubing to the cat neck valve.
During an initial 1 hour stabilisation period, steady baseline recordings are obtained. The test compound contained in a gelatine capsule, is then administered orally. Recording is normally carried out for 6 hours post dosing.
The maximal percentage change in dp/dt over initial baseline level is used as the index of inotropic activity. Chronotropic activity is taken as the maximal percentage change in HR over the initial baseline level.

[3] = system: electrically paced left atrium; assay: Isolated rat atria: tension of the electrically paced left atrium; conditions: Rattus norvegicus, Krebs solution at 32°C; for Emax: maximal effect relative to isoprenaline maximum (isoprenaline = 1), read-out: Tension Intrinsic Activity; for EC50: molar concentration producing 50% of the compound's own maximum response
Experimental: as §1, §2, §3

[4] = system: Male Sprague-Dawley rats; assay: Effect on energy expenditure of rats; format: in vivo; conditions: Rattus norvegicus, po, percentage of rate of rats dosed with water; for response vs control in vivo at 7.8 mg/kg: 7.8 mg/kg p.o.; for response vs control in vivo at 7.5 mg/kg: 7.5 mg/kg p.o.; for response vs control in vivo at 4 mg/kg: 4.0 mg/kg p.o.; for response vs control in vivo at 4.1 mg/kg: 4.1 mg/kg p.o.
Experimental: Water was provided ad lib at all times. The compounds were administered orally in water to 3 or 4 rats. A further 4 rats were dosed orally with water. The rats were placed in boxes through which air was drawn and the oxygen content of the air leaving the boxes was measured. The energy expenditure of the rats was calculated for 3 hours and for 21 hours after dosing from the volume of air leaving the boxes and its oxygen content, following the principles described by J.B. de V. Weir, J. Physiol. (London) 109, 1-9 (1949). The results are expressed as a percentage of the rate of energy expenditure of the rats dosed with water.

[5] = system: Female CFLP mice; assay: Hypoglycaemic activity (subcutaneous glucose load, blood glucose curve); format: in vivo; conditions: glucose 1 g/kg subcutaneously, 2 hour period, compared with control mice given water
Experimental: Female CFLP mice, weighing approximately 25 g, were fasted for 24 hours prior to the study. The compounds under study were administered orally as an aqueous solution to each of 6 mice. 30 minutes later a blood sample (20 ul) was obtained from the tail for the analysis of blood glucose. Immediately after taking this blood sample, glucose (1 g/kg body weight) was administered subcutaneously to each mouse. 6 mice were given water as a control. Blood samples were then obtained from each mouse at 30 minute intervals for 120 minutes.
Compounds that produced a significant (p<0.05) reduction of blood glucose, compared with control mice qiven water, at any time interval were considered active. The area under the blood glucose curve over the 2 hour period after the administration of the glucose was calculated for each compound and compared with the value for control animals.

[6] = 3 h, 0-3h after dosing, read-out: Mean Energy Expenditure 0-3h
[7] = 21 h, 0-21h after dosing, read-out: Mean Energy Expenditure 0-21h

EC50 [1] | EC50 [3] | SMILES | Emax [1] | Peak dp/dt ([2]; 1 mg/kg p.o.) | Peak HR ([2]; 1 mg/kg p.o.) | dp/dt: HR ([2]; 1 mg/kg p.o.) | Emax [3] | response vs control in vivo at 7.8 mg/kg [4, 6] | response vs control in vivo at 7.8 mg/kg [4, 7] | response vs control in vivo at 7.5 mg/kg [4, 6] | response vs control in vivo at 7.5 mg/kg [4, 7] | % Reduction in area under blood glucose curve ([5]; 10 μmol/kg orally) | Peak dp/dt ([2]; 0.2 mg/kg p.o.) | Peak HR ([2]; 0.2 mg/kg p.o.) | response vs control in vivo at 4 mg/kg [4, 6] | response vs control in vivo at 4 mg/kg [4, 7] | % Reduction in area under blood glucose curve ([5]; 2.5 μmol/kg orally) | response vs control in vivo at 4.1 mg/kg [4, 6] | response vs control in vivo at 4.1 mg/kg [4, 7] | % Reduction in area under blood glucose curve ([5]; 25 μmol/kg orally)
14 nM | 50 nM | CC(COc1ccc2c(c1)NC(=O)CO2)NCC(O)COc1ccc(O)cc1 (stereo not shown) [Example 4, 6-[2-[3-(4-Hydroxyphenoxy)-2-hydroxypropylamino]-2-methylethoxy]-2H-1,4-benzoxazin-3-(4H)-one] | 89% | 50% | 36% | 1.4 | 40% | 128% | 119% | – | – | – | – | – | – | – | – | – | – | –
5.5 nM | 21 nM | CC(COc1ccc2c(c1)OCC(=O)N2)NCC(O)COc1ccc(O)cc1 (stereo not shown) [Example 3, 7-[2-[3-(4-Hydroxyphenoxy)-2-hydroxypropylamino]-2-methylethoxy]-2H-1,4-benzoxazin-3-(4H)-one] | 72% | 95% | 13% | 7.3 | 52% | – | – | – | – | – | 23% | 0% | 108% | 105% | 3% | – | – | –

The remaining lines, values behind:

SMILES | EC50 [1] | EC50 [3] | Emax [1] | Peak dp/dt ([2]; 1 mg/kg p.o.) | Peak HR ([2]; 1 mg/kg p.o.) | dp/dt: HR ([2]; 1 mg/kg p.o.) | Emax [3] | response vs control in vivo at 7.8 mg/kg [4, 6] | response vs control in vivo at 7.8 mg/kg [4, 7] | response vs control in vivo at 7.5 mg/kg [4, 6] | response vs control in vivo at 7.5 mg/kg [4, 7] | % Reduction in area under blood glucose curve ([5]; 10 μmol/kg orally) | Peak dp/dt ([2]; 0.2 mg/kg p.o.) | Peak HR ([2]; 0.2 mg/kg p.o.) | response vs control in vivo at 4 mg/kg [4, 6] | response vs control in vivo at 4 mg/kg [4, 7] | % Reduction in area under blood glucose curve ([5]; 2.5 μmol/kg orally) | response vs control in vivo at 4.1 mg/kg [4, 6] | response vs control in vivo at 4.1 mg/kg [4, 7] | % Reduction in area under blood glucose curve ([5]; 25 μmol/kg orally)
CC(COc1ccc2c(c1)NC(=O)CO2)NCC(O)c1cccc(Cl)c1 (stereo not shown) [Example 6, 6-[2-[2-(3-Chlorophenyl)-2-hydroxyethylamino]-2-methylethoxy]-2H-1,4-benzoxazin-3-(4H)-one] | 25 nM | 300 nM | 66% | – | – | – | 7% | – | – | 125% | 105% | 29% | – | – | – | – | – | – | – | –
CC(COc1ccc2c(c1)NC(=O)CO2)NCC(O)c1ccc(Cl)c(Cl)c1 (stereo not shown) [Example 7, 6-[2-[2-(3,4-Dichlorophenyl)-2-hydroxyethylamino]-2-methylethoxy]-2H-1,4-benzoxazin-3-(4H)-one] | 36 nM | 45 nM | 50% | – | – | – | 14% | – | – | – | – | – | – | – | – | – | – | 149% | 107% | 11%
CC(COc1ccc2c(c1)OCC(=O)N2)NCC(O)c1ccc(O)cc1 (stereo not shown) [Example 1, 7-[2-[2-(4-hydroxyphenyl)-2-hydroxyethylamino]-2-methylethoxy]-2H-1,4-benzoxazin-3-(4H)-one] | 6.2 nM | 21 nM | 97% | 230% | 46% | 5.0 | 97% | – | – | – | – | – | – | – | – | – | – | – | – | –
CC(COc1ccc2c(c1)OCC(=O)N2)NCC(O)c1cccc(Cl)c1 (stereo not shown) [Example 2, 7-[2-[2-(3-Chlorophenyl)-2-hydroxyethylamino]-2-methyl-ethoxy]-2H-1,4-benzoxazin-3-(4H)-one] | 55 nM | 85 nM | 44% | – | – | – | 18% | – | – | 128% | 110% | – | – | – | – | – | 22% | – | – | –

From EP0171702A1, “Benzoxazinone derivatives, preparation and use” (BEECHAM GROUP PLC, priority 1984, dated 1986)
